Test results reported in BigSolDB 2.1.

O=Cc1ccc2c(c1)OCO2
solubility (mole fraction)
Conditions | in acetone | in chloroform | in ethanol | in isopropanol | in water
273.15 K | 0.0521 | 0.427 | 0.0056 | 0.0174 | 0.000118
278.15 K | 0.0655 | 0.477 | 0.0143 | 0.0227 | 0.000153
283.15 K | 0.0876 | 0.531 | 0.0396 | 0.0332 | 0.00022
288.15 K | 0.118 | 0.598 | 0.0697 | 0.0461 | 0.000277
293.15 K | 0.155 | 0.693 | 0.123 | 0.0753 | 0.000393
